Source: patent publication US7323541B2, “Polypeptide DNA thereof and use of the same” (Takeda Pharmaceutical Company Limited, priority 2001, dated 2008)
Numbering of substitutions follows the chain as printed. Where no end group is shown, it is not given here.

What was measured:
[1] = molecular target: T1, TGR23-1 expressing CHO cells (Homo sapiens, UniProt Q6W5P4); test: Intracellular Ca ion concentration increasing activity using FLIPR; type: cell-based; details: variety of concentrations
T1 construct: the clones having the cDNA of TGR23-1, which is contained in pTB2173, were selected; expressed in transfected cells; host or cells: hamster CHO/dhfr- cells, vector pAKKO-111H (pAKKO-TGR23-1), clones No. 49 and No. 52
T1 sequence (Q6W5P4 1-371): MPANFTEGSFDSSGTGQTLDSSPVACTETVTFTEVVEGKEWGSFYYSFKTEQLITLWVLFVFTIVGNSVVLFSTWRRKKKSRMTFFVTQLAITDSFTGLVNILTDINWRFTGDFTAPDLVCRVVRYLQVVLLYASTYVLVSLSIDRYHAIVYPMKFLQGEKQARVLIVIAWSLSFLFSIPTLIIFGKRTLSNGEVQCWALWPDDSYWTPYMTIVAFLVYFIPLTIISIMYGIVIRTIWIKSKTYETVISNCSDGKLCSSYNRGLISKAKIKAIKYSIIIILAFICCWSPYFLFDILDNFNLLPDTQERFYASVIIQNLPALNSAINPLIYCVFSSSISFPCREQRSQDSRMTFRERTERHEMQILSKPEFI
Procedure: (§1) An enhancing activity of intracellular Ca^2+ release was assayed using FLIPR (Molecular Devices, Inc.). The CHO/TGR23-2 cells prepared in Example 1 and selected in Example 2 were plated on 96-well plate at 3×10^4 cells/well and cultured for 24 hours. A loading buffer was prepared by adding 1 vial of Fluo 3-AM to 10 ml of Hanks' solution (pH7.4) containing 2.5 mM Probenecid and 20 mM HEPES (hereafter, Hanks' solution (pH7.4) containing 2.5 mM Probenecid and 20 mM HEPES may be referred to as a washing buffer). The culture medium was discarded from the culture plate and 100 μl/well of the loading buffer were added to the cells. Then, the cells were incubated for 60 minutes in the incubator. After the loading buffer was removed from the culture plate and the cells were washed with the washing buffer, the plate was put in place of FLIPR. A sample was prepared by adding a sample buffer, which 2 mg/ml BSA and 1 mg/ml CHAPS were added to the washing buffer, to lyophilized product, stirring and treating by ultrasonication for 30 minutes, and transferred to 96-well sample plate. This sample plate was also put in place for assay. The enhancing activity of intracellular Ca^2+ release was measured as an increase of fluorescent intensity, which is raised by addition of the sample. Human TGR23-2 ligand (1-20) obtained in Example 17 was administered to TGR23-1 expressing CHO cells and TGR23-2 expressing CHO cells at a variety of concentrations according to the method described in Example 5, and the increasing activity of intracellular Ca ion concentration was determined using FLIPR. […] Rat TGR23-2 ligand (1-18) prepared by the method described in Example 19 and mouse TGR23-2 ligand (1-20) prepared by the method described in Example 20 were administered to TGR23-1 expressing CHO cells and TGR23-2 expressing CHO cells at a variety of concentrations according to the method described in Example 5, and the increasing activity of intracellular Ca ion concentration was determined using FLIPR.

[2] = molecular target: T2, TGR23-2 expressing CHO cells (Homo sapiens, UniProt Q6W5P4, N107I/Q344R); test: as above; type: cell-based; details: variety of concentrations
T2 construct: the clones having the cDNA of TGR23-2, which is contained in pTB2174, were selected; expressed in transfected cells; host or cells: hamster CHO/dhfr- cells, vector pAKKO-111H (pAKKO-TGR23-2)
T2 sequence (Q6W5P4 1-371 N107I/Q344R): T1 sequence (Q6W5P4 1-371) with N107I, Q344R
Procedure: as §1

[3] = molecular target: T3, membrane fraction of TGR23-2 expressing CHO cells (Homo sapiens, UniProt Q6W5P4, N107I/Q344R); test: GTPγS binding activity in membrane fraction; type: biochemical
T3 construct: the clones having the cDNA of TGR23-2, which is contained in pTB2174, were selected; expressed in transfected cells; host or cells: hamster CHO/dhfr- cells, vector pAKKO-111H (pAKKO-TGR23-2)
T3 sequence (Q6W5P4 1-371 N107I/Q344R): T1 sequence (Q6W5P4 1-371) with N107I, Q344R
Procedure: Enhancing activity of binding of [^35S]-Guanosine 5′-(γ-thio) triphosphate in the membrane fraction of TGR23-2 expressing CHO cells was measured by the following method. Firstly, it is described about preparation of membrane fraction. Twenty (20) ml of homogenation buffer (10 mM HEPES (pH7.3), 5 mM EDTA, 0.52 mM PMSF, 10 μg/ml pepstatin, 8 μg/ml E64, 20 μg/ml leupeptin) was added to 8×10^7 of TGR23-2 expressing CHO cells, and the cells were disrupted using Polytron (12,000 rpm, 30 seconds×3 times). The cell-disrupted fluids were centrifuged (1,000 g for 15 minutes) to get supernatant. Subsequently the supernatant was ultracentrifuged (Beckman type 30 rotor, 30,000 rpm, one hour), and the precipitate obtained was collected as a membrane fraction of TGR23-2 expressing CHO cells. The GTPγS binding activity was assayed as follows. The membrane fraction of TGR23-2 expressing CHO cells was diluted with membrane dilution buffer (50 mM Tris-HCl buffer (pH7.4), 5 mM MgCl2, 150 mM NaCl, 0.03% NaN3, 0.1% BSA, 1 μM GDP) to get cell membrane fraction solution for assay at the protein concentration of […]. Two (2) μl of 50 nM [^35S]-guanosine 5′-(γ-thio) triphosphate (NEN) and sample were added to 200 μl of cell membrane fraction solution for assay, and the mixture was incubated at 25° C. for one (1) hour. The mixture was filtered, and the filter was washed twice with 1.5 ml of washing buffer (50 mM Tris-HCl buffer (pH7.4), 5 mM MgCl2, 1 mM EDTA, 0.03% NaN3, 0.1% BSA). Then the radioactivity on the filter was measured by liquid scintillation counter. Human TGR23-2 ligand (1-20) prepared by the method described in Example 17, rat TGR23-2 ligand (1-18) prepared by the method described in Example 19 and mouse TGR23-2 ligand (1-20) prepared by the method described in Example 20 were administered to TGR23-2 expressing CHO cells at a variety of concentrations according to the method described above, and the GTPγS binding activity was determined.

[4] = molecular target: T2, TGR23-2 expressing CHO cells; test: Enhancing activity of intracellular cAMP production; type: cell-based; details: with forskolin
Procedure: The CHO/TGR23-2 cells prepared in Example 1 and selected in Example 2 were plated on 24-well plate at 7×10^4 cells/well and cultured for 48 hours. The cells were washed with αMEM medium (pH7.5) containing 0.2 mM 3-isobutyl-methylxanthine, 0.05% BSA and 20 mM HEPES (hereafter, αMEM medium (pH7.5) containing 0.2 mM 3-isobutyl-methylxanthine, 0.05% BSA and 20 mM HEPES may be referred to as a reaction buffer). Subsequently, 0.5 ml of the reaction buffer was added, and the solution was incubated for 30 minutes in the incubator. The reaction buffer was removed and 0.25 ml of the reaction buffer was freshly added to the cells. Then, the cells were admixed with a sample and 0.25 ml of the reaction buffer containing 2 μM forskoline, and incubated at 37° C. for 30 minutes. Intracellular cAMP was extracted by removing the reaction solution and adding 0.5 ml of the solution for cell lysis attached with cAMP EIA Kit (Applied Biosystems). The cAMP level in the extract was quantified with the same kit. Based on this measured value, a calculation was made using the following formula, and the enhancing/inhibiting activity for cAMP production was represented by % of control. The activity of the sample-adding group was calculated using a control value configured in each plate. % of control=(X−C)/(T−C)×100
X: The cAMP level in the sample-adding group
T: The means of the cAMP level in 3 wells of positive control (no sample, with stimulus of forskoline)
C: The means of the cAMP level in 3 wells of negative control (no sample, without stimulus of forskoline)
In addition, for the same sample, in accordance with the method shown in Example 4, an arachidonic acid metabolite releasing activity was assayed.
Four microlitters each of the above-mentioned HPLC active fractions of rat whole brain extracts (Fraction numbers 18, 20 and 22 to 23) was added to 100 μl of 0.2 M ammonium acetate and incubated at 37° C. for 2 hours with 3 μg of Pronase. Subsequently, Pronase added, was inactivated by heating in boiling water for 10 minutes. To this solution, one ml of distilled water containing 0.05 mg of BSA and 0.05 mg of CHAPS was added. Further, it was lyophilized. For the lyophilized sample, enhancing activity for intracellular cAMP production was assayed by adding to TGR23-2 expressing CHO cells according to the method shown in Example 3.
Human TGR23-2 ligand (1-20) prepared by the method described in Example 17 was administered to TGR23-1 expressing CHO cells and TGR23-2 expressing CHO cells at a variety of concentrations according to the method described in Example 3, and the enhancing activity of intracellular cAMP production was determined.
Further, human TGR23-2 ligand (1-20) and rat TGR23-2 ligand (1-18) prepared by the method described in Example 19 were administered to TGR23-1 expressing CHO cells and TGR23-2 expressing CHO cells at a variety of concentrations, and the same assay as described above was carried out under the condition of no forskolin. A calculation was made using the following formula, and the enhancing activity for cAMP production was represented by % of control: % of control=X/C×100;
X: The cAMP level in the sample-adding group; and
C: Control (no sample, without stimulus of forskoline).

Sequence | increase of intracellular Ca ion concentration [1] | increase of intracellular Ca ion concentration [2] | GTPγS binding activity [3] | enhancing activity of intracellular cAMP production [4]
SFRNGVGSGAKKTSFRRAKQ [mouse TGR23-2 ligand (1-20)] | clearly enhance an increase of intracellular Ca ion concentration | clearly enhance an increase of intracellular Ca ion concentration | enhance the GTPγS binding activity | 
SFRNGVGSGVKKTS (Rat) [rat TGR23-2 ligand (1-14)] |  |  |  | specifically exhibits an enhancing activity for cAMP production
SFRNGVGSGVKKTSF (Rat) [rat TGR23-2 ligand (1-15)] |  |  |  | specifically exhibits an enhancing activity for cAMP production
